# Results: patent US6468522B1, “Controlled release of thioamide moiety-containing therapeutic agents” (priority 1999, dated 2002)
# Legend:
# [1] = Reductive release of drug from disulfide conjugate (DTT or glutathione, TLC); assay type: physicochemical; settings: organic phase
# Experimental: III Release of UC781 from mPEG-S—S-UC781. […] Then, 0.5 ml of 6 mM dithiothreitol (DTT) in DCM was added to the conjugate solution.
# After 2 hours at room temperature, the reaction mixture was taken to dryness by speed vacuum.
# In an alternate procedure to the above, cysteamine may be used in place of 1-amino-2-methyl-2-propanethiol, which produces a UC781 conjugate (PEG-CO—NH—CH2—CH2—S—S—UC781) with less sterically hindered thiol groups and therefore with a ˜100-fold faster release under reducing conditions.
# [2] = Kinetics following intravenous injection of PEG-S-S-UC781 in rabbits; assay type: in vivo; settings: rabbit
# Experimental: The wavelength for detection of UC781 is 290 nm.
# An in-vivo experiment was done in duplicate in rabbits (about 3.6 kg, New Zealand white, female), performed according to protocol #I99-054 approved by the IACUC of UMDNJ-Robert Wood Johnson Medical School. […] Blood samples were drawn from the auricular artery of the opposite ear prior to and at predetermined time points after injection. Immediately after the blood was drawn, 1 ml was mixed with 2 ml of acetonitrile, vortexed, kept on ice for 10 min and then centrifuged at 1000×g for 10 min at 4° C. The supernatant was collected and analyzed by reverse phase HPLC, as described above. Blood levels were determined with time by HPLC with and without the DTT reductive cleavage step (FIG. 7).
# in vitro = settings: rabbit
# [3] = Kinetics following intramuscular injection of PEG-S-S-UC781 in mice; assay type: in vivo
# Experimental: An in-vivo experiment was done twice in mice (about 25 g, […]), performed according to protocol #I00-001, approved by the IACUC. […] Twenty mg, equivalent to 0.5 mg of UC781, was dissolved in 1 ml of PBS and injected into the leg muscle. At each time point, a mouse was euthanized, blood was collected and the injected muscle was removed. The blood samples were treated with 2 volumes of acetonitrile as described above. The tissue samples were homogenized with 1 ml of PBS and then treated with 2 volumes of acetonitrile, as above. The samples were then analyzed by reverse phase HPLC. […] Recovery and extraction efficiency from the muscle was tested by injection into the excised muscle from a freshly euthanized mouse.
# HIV-RT = HIV-RT (Human immunodeficiency virus type 1 group M subtype B, UniProt P03366); assay: Reverse transcriptase (RT) inhibition assay; assay type: biochemical; settings: for UC781 concentration found by RT assay: predicted 30 nM
# Experimental: UC781 standard solutions were prepared in DMSO. The stock solution of HIV-RT (13.5 Units/μl) was diluted to 25 mUnits/μl in buffer comprising 50 mM Tris-HCl, pH 8.0, 1 mM DTT, 0.01% bovine serum albumin (BSA). Each assay tube contained 40 μl of a solution comprising 50 mM Tris-HCl, pH 8.0, 4 mM DTT, 12.4 mM MgCl2, 50 mM KCl, 0.01% BSA, 10 μg/ml poly(A), 0.01 mM dTTP and […] [α-^32P]dTTP, 2 μl of diluted RT and 3 μl of sample dissolved in DMSO. Samples were incubated at 37° C. for 30 minutes. The polymerization reaction was stopped by adding 0.15 mg/ml of salmon sperm DNA and chilling on ice. An aliquot (20 μl) of each reaction mixture was spotted onto square stamped GF/C filter paper (12.5 cm in diameter) presoaked with 10% trichloroacetic acid (TCA). After the spots were dry, the paper was rinsed with 50 ml of ice cold 10% TCA twice, 50 ml of ice cold water three times and then once with 25 ml of ice cold 95% ethanol in a Buchner funnel. The paper was dried, cut into squares and each square was counted in 4 ml of LSC cocktail (National Diagnostics).
# The reverse transcriptase inhibition (RT) assay was used to confirm that the compound released in blood is truly active UC781. […] As a control, authentic UC781 was run on the HPLC column and the peak was collected at 24.2 minutes. […] An aliquot of each HPLC fraction, providing a predicted concentration of 30 nM in the RT assay, was analyzed.
SMILES,release of drug from conjugate by DTT [1],"UC781 concentration in plasma higher than in matched whole blood ([2]; EDTA-treated blood, duplicate sample)",half-life of UC781 in the bloodstream ([2]; after iv PEG-S-S-UC781),"recovery at 10 min, 10 µg/mL (in vitro) [%]","level of UC781 in tissue samples ([3]; mouse injected muscle, after 1 hour)","UC781 in blood samples ([3]; mouse, im, HPLC)",UC781 concentration found by RT assay (HIV-RT; HPLC peak fraction of rabbit blood 5 min after iv PEG-S-S-UC781) [nM],"activity of compound recovered from blood (HIV-RT; RT assay, blood versus standard)",UC781 concentration found by RT assay (HIV-RT; authentic UC781 standard HPLC fraction) [nM]
"O=c1[nH]c(=S)ccn1[C@@H]1O[C@H](CO)[C@@H](O)[C@H]1O [4-thiouridine, 4-Thiouridine]",reductively released,,,,,,,,
"CC(C)=CCOc1cc(NC(=S)c2ccoc2C)ccc1Cl [UC781, N-[4-chloro-3-(3-methyl-2-butenyloxy)phenyl]-2-methyl-3-furancarbothioamide]",,about 10%,several minutes,113,more than 10%,below the detection limit,26,fully active,27
